Laboratory results published in article PMC3914206.

Assays:
ERK5 = ERK5 (Homo sapiens, UniProt Q13164); test: ERK5 kinase activity in vitro assay (32P-ATP, PIMtide substrate); type: biochemical; set-up: hexahistidine (His6) (N); made in house; host or cells: Spodoptera frugiperda 21 cells (baculovirus, Bac-to-Bac); conditions: in vitro assay, recombinant active ERK5; read-out: Enzymatic IC50 (ERK5)
Description: pFastBAC vector encoding N-terminal hexahistidine-tagged human ERK5 and HA-tagged human MEK5-DD (constitutively active) were used to generate recombinant baculovirus using the Bac-to-Bac system (Invitrogen). […] His-tagged ERK5 was purified as described for His-tagged BRSK1[33], using 5 mL Ni-NTA-agarose resin (Qiagen) followed by gel filtration chromatography on Superdex 200HR column on an AKTA system (GE Healthcare).
Assays were carried out for 20 min at 30 °C, terminated by applying the reaction mixture onto p81 paper and the incorporated radioactivity measured as described previously.

[1] = biological target: T1, selected panels of kinases in HeLa and PC3 cell lysates (Homo sapiens, UniProt Q8TD19); test: KiNativ chemical proteomics profiling in HeLa and PC3 cell lysates; type: binding; conditions: 10 uM
T1 construct: endogenous in cells; host or cells: HeLa and PC3 cell lysates
T1 sequence (Q8TD19 1-979): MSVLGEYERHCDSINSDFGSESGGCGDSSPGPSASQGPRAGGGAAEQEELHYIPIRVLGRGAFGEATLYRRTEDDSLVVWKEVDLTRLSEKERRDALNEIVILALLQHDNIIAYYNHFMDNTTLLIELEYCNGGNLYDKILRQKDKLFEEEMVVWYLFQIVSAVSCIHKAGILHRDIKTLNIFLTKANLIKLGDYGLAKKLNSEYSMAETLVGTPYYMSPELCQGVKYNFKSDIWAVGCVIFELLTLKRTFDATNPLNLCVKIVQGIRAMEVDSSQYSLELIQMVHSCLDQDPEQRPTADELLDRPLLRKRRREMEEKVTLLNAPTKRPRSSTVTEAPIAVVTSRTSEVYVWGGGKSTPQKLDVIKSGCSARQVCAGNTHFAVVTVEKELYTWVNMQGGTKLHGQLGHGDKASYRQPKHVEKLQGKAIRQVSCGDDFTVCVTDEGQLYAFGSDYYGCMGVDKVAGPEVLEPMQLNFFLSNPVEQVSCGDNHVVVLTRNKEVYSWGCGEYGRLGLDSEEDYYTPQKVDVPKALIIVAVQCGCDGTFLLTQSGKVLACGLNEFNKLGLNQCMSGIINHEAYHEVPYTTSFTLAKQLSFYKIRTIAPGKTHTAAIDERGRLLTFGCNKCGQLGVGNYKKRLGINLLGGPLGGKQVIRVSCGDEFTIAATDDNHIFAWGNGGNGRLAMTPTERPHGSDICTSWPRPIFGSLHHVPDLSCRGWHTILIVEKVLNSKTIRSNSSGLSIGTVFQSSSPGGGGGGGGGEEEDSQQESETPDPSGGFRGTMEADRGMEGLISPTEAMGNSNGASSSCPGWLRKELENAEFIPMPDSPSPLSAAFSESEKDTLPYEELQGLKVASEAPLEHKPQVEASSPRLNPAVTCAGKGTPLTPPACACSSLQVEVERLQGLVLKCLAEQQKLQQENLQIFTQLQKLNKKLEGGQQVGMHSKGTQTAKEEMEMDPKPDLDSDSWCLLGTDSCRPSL

[2] = biological target: T2, selected panels of kinases in HeLa and PC3 cell lysates (Homo sapiens, UniProt Q12851); test: as above; type: binding; conditions: 10 uM; proteome HEL; peptide […]kIVK; labeling site Lys1
T2 construct: endogenous in cells; host or cells: HeLa and PC3 cell lysates
T2 sequence (Q12851 whole entry): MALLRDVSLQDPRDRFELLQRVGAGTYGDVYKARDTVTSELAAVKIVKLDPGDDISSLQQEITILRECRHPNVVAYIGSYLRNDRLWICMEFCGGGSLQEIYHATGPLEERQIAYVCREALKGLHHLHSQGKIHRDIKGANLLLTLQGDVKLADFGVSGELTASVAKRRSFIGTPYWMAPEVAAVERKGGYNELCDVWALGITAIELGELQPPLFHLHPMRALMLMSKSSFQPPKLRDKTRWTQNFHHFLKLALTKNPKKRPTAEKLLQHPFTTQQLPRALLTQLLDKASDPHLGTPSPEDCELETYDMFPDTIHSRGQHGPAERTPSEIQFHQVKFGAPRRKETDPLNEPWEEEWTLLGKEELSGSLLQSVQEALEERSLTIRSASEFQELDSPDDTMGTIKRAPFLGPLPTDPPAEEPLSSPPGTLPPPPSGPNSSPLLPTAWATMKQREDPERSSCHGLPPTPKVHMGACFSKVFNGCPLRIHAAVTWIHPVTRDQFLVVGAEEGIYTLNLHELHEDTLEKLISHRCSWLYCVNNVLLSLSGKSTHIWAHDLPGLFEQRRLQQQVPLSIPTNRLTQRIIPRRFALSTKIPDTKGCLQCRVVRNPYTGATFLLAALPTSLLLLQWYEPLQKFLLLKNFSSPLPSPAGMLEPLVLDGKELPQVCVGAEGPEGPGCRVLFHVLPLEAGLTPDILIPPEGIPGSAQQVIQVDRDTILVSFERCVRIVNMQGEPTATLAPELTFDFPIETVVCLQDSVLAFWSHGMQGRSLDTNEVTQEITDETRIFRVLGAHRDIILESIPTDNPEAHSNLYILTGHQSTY

[3] = biological target: T3, selected panels of kinases in HeLa and PC3 cell lysates (Homo sapiens, UniProt Q9Y572); test: as above; type: binding; conditions: 10 uM; RIPK3; peptide DLk[…]; proteome HEL; labeling site Lys2
T3 construct: endogenous in cells; host or cells: HeLa and PC3 cell lysates
T3 sequence (Q9Y572 whole entry): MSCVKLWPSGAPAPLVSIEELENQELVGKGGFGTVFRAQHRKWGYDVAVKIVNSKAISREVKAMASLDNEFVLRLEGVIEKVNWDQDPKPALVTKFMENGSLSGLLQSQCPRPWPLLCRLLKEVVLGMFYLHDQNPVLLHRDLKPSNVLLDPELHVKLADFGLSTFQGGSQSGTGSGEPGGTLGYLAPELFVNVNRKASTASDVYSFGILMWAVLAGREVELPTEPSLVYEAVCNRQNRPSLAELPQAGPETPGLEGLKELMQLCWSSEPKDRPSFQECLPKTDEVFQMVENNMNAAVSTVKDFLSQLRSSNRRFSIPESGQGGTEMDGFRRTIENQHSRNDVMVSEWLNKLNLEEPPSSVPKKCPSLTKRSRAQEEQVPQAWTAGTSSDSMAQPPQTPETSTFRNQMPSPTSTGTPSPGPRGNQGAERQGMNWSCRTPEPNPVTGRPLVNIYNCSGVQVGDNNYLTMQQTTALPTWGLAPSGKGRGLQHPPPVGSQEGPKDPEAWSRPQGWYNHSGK

[4] = biological target: T4, selected panels of kinases in HeLa and PC3 cell lysates (Homo sapiens, UniProt P54760); test: as above; type: binding; conditions: 10 uM; proteome PC3; peptide […]kIPIR; labeling site Activation Loop
T4 construct: endogenous in cells; host or cells: HeLa and PC3 cell lysates

[5] = biological target: T5, selected panels of kinases in HeLa and PC3 cell lysates (Homo sapiens, UniProt P10398); test: as above; type: binding; conditions: 10 uM; proteome HEL; peptide DLk[…]; labeling site Lys2
T5 construct: endogenous in cells; host or cells: HeLa and PC3 cell lysates
T5 sequence (P10398 whole entry): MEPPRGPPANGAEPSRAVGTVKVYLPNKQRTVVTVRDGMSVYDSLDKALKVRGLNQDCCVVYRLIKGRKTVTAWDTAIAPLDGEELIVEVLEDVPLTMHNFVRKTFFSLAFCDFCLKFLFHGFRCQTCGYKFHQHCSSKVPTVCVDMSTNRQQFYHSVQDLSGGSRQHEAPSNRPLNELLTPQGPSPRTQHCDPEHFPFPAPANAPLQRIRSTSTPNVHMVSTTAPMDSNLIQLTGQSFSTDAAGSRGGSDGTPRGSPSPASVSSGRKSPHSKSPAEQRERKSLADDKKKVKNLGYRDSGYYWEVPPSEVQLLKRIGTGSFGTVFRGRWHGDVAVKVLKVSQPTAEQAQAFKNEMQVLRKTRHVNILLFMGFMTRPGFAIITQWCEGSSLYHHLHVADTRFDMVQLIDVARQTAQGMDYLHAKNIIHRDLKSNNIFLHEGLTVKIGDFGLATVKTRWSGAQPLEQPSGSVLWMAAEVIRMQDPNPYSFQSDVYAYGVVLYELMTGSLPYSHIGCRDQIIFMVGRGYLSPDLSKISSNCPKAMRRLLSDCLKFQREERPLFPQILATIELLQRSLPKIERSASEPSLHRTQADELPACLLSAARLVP

[6] = biological target: T6, selected panels of kinases in HeLa and PC3 cell lysates (Homo sapiens, UniProt P43405); test: as above; type: binding; conditions: 10 uM; SYK; peptide ISDFGLSkALR; proteome HEL; labeling site Activation Loop
T6 construct: endogenous in cells; host or cells: HeLa and PC3 cell lysates

[7] = biological target: T7, selected panels of kinases in HeLa and PC3 cell lysates (Homo sapiens, UniProt O14936); test: as above; type: binding; conditions: 10 uM; proteome PC3; peptide ETGQQFAVkIVDVAK; labeling site Lys1
T7 construct: endogenous in cells; host or cells: HeLa and PC3 cell lysates

[8] = biological target: T8, selected panels of kinases in HeLa and PC3 cell lysates (Homo sapiens, UniProt Q05397); test: as above; type: binding; conditions: 10 uM; proteome PC3; peptide […]kTCK; labeling site Lys1
T8 construct: endogenous in cells; host or cells: HeLa and PC3 cell lysates
T8 sequence (Q05397 whole entry): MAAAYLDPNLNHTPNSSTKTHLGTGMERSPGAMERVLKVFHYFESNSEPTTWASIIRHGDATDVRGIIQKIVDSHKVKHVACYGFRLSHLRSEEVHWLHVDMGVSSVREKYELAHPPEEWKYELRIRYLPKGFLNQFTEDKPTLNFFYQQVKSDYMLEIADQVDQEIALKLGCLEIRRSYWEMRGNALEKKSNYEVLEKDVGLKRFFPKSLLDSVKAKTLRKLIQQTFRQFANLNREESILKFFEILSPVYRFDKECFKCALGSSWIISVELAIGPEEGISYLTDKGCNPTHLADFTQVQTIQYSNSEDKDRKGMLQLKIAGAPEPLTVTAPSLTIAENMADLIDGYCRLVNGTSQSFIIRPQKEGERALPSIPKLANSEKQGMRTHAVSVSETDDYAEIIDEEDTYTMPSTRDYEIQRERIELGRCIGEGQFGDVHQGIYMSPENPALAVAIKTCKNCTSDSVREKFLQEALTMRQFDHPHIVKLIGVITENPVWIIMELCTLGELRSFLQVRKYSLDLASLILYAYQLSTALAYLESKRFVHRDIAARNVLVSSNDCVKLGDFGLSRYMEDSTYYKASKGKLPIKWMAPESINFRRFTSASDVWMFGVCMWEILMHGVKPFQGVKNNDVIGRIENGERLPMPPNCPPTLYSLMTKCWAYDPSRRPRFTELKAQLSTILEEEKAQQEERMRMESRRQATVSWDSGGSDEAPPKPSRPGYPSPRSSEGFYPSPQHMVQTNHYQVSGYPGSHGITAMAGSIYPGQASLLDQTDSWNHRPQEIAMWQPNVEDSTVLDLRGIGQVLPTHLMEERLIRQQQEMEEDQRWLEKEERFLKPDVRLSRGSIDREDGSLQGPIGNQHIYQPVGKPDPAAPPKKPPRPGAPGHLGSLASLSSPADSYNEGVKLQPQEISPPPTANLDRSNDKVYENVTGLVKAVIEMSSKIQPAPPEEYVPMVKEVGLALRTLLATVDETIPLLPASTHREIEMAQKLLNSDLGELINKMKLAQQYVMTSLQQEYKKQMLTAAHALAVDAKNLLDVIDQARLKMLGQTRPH

[9] = biological target: T9, selected panels of kinases in HeLa and PC3 cell lysates (Homo sapiens, UniProt Q96J92); test: as above; type: binding; conditions: 10 uM; Wnk4; peptide DLk[…]; proteome PC3; labeling site Lys2
T9 construct: endogenous in cells; host or cells: HeLa and PC3 cell lysates
T9 sequence (Q96J92 whole entry): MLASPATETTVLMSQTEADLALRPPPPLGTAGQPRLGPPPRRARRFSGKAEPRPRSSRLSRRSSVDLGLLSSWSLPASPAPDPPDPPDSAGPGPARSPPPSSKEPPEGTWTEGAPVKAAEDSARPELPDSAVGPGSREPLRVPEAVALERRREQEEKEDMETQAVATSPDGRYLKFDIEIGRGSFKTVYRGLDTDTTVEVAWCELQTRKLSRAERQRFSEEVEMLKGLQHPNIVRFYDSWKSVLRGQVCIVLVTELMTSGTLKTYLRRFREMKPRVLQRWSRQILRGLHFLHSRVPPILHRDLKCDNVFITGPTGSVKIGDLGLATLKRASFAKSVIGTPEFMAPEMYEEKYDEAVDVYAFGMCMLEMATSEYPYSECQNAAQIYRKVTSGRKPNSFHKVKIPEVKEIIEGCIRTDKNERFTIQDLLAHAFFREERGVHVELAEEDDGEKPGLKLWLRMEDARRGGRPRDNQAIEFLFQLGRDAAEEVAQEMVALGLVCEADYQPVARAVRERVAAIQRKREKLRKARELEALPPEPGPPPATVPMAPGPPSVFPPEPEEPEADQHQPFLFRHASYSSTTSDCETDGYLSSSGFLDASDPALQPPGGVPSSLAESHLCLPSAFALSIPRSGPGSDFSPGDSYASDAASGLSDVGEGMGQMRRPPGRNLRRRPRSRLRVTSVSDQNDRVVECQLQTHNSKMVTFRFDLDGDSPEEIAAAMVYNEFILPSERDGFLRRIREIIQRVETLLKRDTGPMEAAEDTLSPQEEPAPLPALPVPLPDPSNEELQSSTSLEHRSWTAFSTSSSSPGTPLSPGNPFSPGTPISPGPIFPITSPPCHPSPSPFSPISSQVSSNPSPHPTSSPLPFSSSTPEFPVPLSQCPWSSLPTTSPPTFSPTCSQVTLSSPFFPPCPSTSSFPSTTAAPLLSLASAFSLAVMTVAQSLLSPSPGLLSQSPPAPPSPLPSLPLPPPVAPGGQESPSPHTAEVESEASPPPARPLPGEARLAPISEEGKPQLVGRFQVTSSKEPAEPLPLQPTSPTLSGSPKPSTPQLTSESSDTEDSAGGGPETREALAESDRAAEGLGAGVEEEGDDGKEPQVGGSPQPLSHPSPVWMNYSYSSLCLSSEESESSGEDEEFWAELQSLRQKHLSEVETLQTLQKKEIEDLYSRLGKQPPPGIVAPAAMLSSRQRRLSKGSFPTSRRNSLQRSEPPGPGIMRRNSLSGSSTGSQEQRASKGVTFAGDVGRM

[10] = proteome HEL, peptide DIkTLNIFLTK, labeling site Lys2
[11] = proteome HEL, peptide LGDYGLAkK, labeling site Activation Loop
[12] = proteome PC3, peptide DIkTLNIFLTK, labeling site Lys2
[13] = proteome PC3, peptide LGDYGLAkK, labeling site Activation Loop

Sequence of ERK5 (Q13164 whole entry): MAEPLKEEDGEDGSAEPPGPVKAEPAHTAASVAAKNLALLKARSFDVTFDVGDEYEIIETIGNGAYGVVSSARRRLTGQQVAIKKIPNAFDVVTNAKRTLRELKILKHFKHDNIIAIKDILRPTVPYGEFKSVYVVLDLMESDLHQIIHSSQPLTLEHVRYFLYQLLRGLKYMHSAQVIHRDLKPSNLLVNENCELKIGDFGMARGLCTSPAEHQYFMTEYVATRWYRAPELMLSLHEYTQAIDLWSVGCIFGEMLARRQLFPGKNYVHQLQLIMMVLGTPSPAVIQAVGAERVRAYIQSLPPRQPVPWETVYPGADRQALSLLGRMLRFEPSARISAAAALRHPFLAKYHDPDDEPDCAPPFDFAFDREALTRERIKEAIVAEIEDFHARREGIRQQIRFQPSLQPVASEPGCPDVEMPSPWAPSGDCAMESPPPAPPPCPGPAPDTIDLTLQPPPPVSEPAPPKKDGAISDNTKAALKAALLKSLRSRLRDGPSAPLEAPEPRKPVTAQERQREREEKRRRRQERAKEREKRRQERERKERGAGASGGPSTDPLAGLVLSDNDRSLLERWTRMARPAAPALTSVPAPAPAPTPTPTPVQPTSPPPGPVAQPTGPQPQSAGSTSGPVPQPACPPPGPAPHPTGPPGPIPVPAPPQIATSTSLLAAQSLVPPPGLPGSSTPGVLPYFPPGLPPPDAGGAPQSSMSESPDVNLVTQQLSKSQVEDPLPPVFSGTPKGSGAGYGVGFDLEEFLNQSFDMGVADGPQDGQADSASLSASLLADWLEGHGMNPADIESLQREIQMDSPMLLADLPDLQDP

| Compound | IC50 (ERK5) | % Inhibiton, NEK9 [1, 10] | % Inhibiton, NEK9 [1, 11] | % Inhibiton, NEK9 [1, 12] | % Inhibiton, NEK9 [1, 13] | % Inhibiton, GCK [2] | % Inhibition RIPK3 [3] | % Inhibiton, EphB4 [4] | % Inhibiton, ARAF [5] | % Inhibition SYK [6] | % Inhibiton, CASK [7] | % Inhibiton, FAK [8] | % Inhibition Wnk4 [9] |
| --- | --- | --- | --- | --- | --- | --- | --- | --- | --- | --- | --- | --- | --- |
| COc1cc(C(=O)N2CCC(N3CCN(C)CC3)CC2)ccc1Nc1ncc2c(n1)N1CCc3cccc(c31)C(=O)N2C [Compound 24] | 199 ± 12 nM |  |  |  |  |  |  |  |  |  |  |  |  |
| COc1cc(C(=O)N2CCC(N3CCN(C)CC3)CC2)ccc1Nc1ncc2c(n1)N(C1CCCC1)c1ccccc1C(=O)N2C [Compound 25, 11-cyclopentyl-2-((2-methoxy-4-(4-(4-methylpiperazin-1-yl)piperidine-1-carbonyl)phenyl)amino)-5-methyl-5H-benzo[e]pyrimido[5,4-b][1,4]diazepin-6(11H)-one] | 82 ± 9 nM | 14.6% | 1.9% | 1.6% | 6.7% | -2.3% | -1.3% | -13.0% | -0.657% | 5.7% | -0.2% | 79.4% | -16.3% |
| CCOc1cc(C(=O)N2CCC(N3CCN(C)CC3)CC2)ccc1Nc1ncc2c(n1)N(C1CCCC1)c1ccccc1C(=O)N2C [Compound 26] |  | 7.6% | -3% | -4.7% | 6.4% | 6.8% | -2.4% | 17% | 2.9% | -0.8% | -36.1% | 48.4% | -2.1% |
